Data taken from patent publication US11547681B2, “N-acylethanolamide derivatives and uses thereof” (ELIEM THERAPEUTICS, INC., priority 2016, dated 2023).

Tests used:
in vitro = conditions: both, human; for Measured concentration of PEA (analyte) / % Remaining of Initial: 1 μM
Outline: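 LC-MS/MS tracked both dosed prodrug and expected drug PEA over 60 min (0, 10, 20, 30, 60 min samples) at 37 °C. Incubations held 1 μM test article in intestinal S9, cofactor-initiated after warm-up, stopped with ice-cold acidified acetonitrile.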

[1] = Plasma stability (37° C., pH 7.4), rat; type: in vitro ADME, Sprague-Dawley rat; conditions: for half-life at 1 μM: male, Sprague-Dawley, rat, plasma, pH 7.4, rat plasma; for % Remaining of Initial: rat plasma, 1 μM, n = 1
Method: (§1) Studies were carried out in mixed-gender human plasma (Lot #GLP530-5), male Sprague-Dawley rat (Lot #RAT297944, RAT313140), male CD-1 mouse (Lot #MSE237700), and male Beagle dog (Lot #BGL87670, BGL82614), collected on sodium heparin. Plasma was adjusted to pH 7.4 prior to initiating the experiments. DMSO stocks were first prepared for the test articles. Aliquots of the DMSO solutions were dosed into 700 μL of plasma, which had been pre-warmed to 37° C., at a final test article concentration of 1 μM. […] Samples were stored at 4° C. until the end of the experiment. After the final time point was sampled, the plate was mixed and then centrifuged at 3,000 rpm for 10 minutes. Calibration standards were prepared in matched matrix. […] Analytical conditions are outlined in Appendix 8-1.
as §1, with “#AS1650-2),” for “#GLP530-5),”, “#RAT297944),” for “#RAT297944, RAT313140),”, “CD-I” for “CD-1”, “#BGL91384),” for “#BGL87670, BGL82614),”, “10-1.” for “8-1.”
Studies were carried out in mixed-gender human plasma (Lot #AS1650-2), male Sprague-Dawley rat (Lot #RAT297944), male CD-1 mouse (Lot #MSE237700), and male Beagle dog (Lot #BGL91384), collected on sodium heparin. Plasma was adjusted to pH 7.4 prior to initiating the experiments. DMSO stocks were first prepared for test articles. […] Samples were stored at 4° C. until the end of experiment. After the final time point was sampled, the plate was mixed and then centrifuged at 3,000 rpm for 10 minutes. Calibration standards were prepared in matched matrix. […] Analytical conditions are outlined in Appendix 13-1.
Studies were carried out in mixed-gender human plasma (Lot #AS 1650-2), male Sprague-Dawley rat (Lot #RAT320835), male CD-1 mouse (Lot #MSE260693), and 6 male Beagle dog (Lot #BGL91384), on sodium heparin. Plasma was adjusted to pH 7.4 prior to initiating the experiments. DMSO stocks were first prepared for the test articles. Aliquots of the DMSO solutions were dosed into 700 μL of plasma, which had been pre-warmed to 37° C., at a final test article concentration of 1 μM. […] Samples were stored at 4° C. until the end of the experiment. After the final time point was sampled, the plate was mixed and then centrifuged at 3,000 rpm for 10 minutes. Calibration standards were prepared in matched matrix. […] Analytical conditions are outlined in Appendix 17-1.

- Measured concentration of PEA (analyte) (in vitro; 0 min): 0 µM
- Measured concentration of PEA (analyte) (in vitro; 10 min): 0.17 µM
- Measured concentration of PEA (analyte) (in vitro; 20 min): 0.29 µM
- Measured concentration of PEA (analyte) (in vitro; 30 min): 0.33 µM
- Measured concentration of PEA (analyte) (in vitro; 60 min): 0.32 µM
- % Remaining of Initial (in vitro; s9, 0 h): 100%
- % Remaining of Initial (in vitro; s9, 10 min): 3.2%
- % Remaining of Initial (in vitro; s9, 20 min): <1.0%
- % Remaining of Initial (in vitro; s9, 0.5 h): <1.0%
- % Remaining of Initial (in vitro; s9, 1 h): <1.0%
- microsomal CLint at 1 μM (in vitro; s9, CLint): > 69.3 µL/min/mg
- half-life at 1 μM (in vitro; s9, Half-life): < 10 min
- half-life at 1 μM ([1]; read-out: Half-life): < 15 min
- half-life at 1 μM ([1]; read-out: Half-life, calculated value in parentheses): 6.9 min
- % Remaining of Initial ([1]; 0 min): 100%
- % Remaining of Initial ([1]; 15 min): 20%
- % Remaining of Initial ([1]; 30 min): 9.3%
- % Remaining of Initial ([1]; 60 min): 4.1%
- % Remaining of Initial ([1]; 120 min): 1.6%
SMILES: CCCCCCCCCCCCCCCC(=O)NCCOC(=O)CCC(=O)OC(COC(=O)CCC)COC(=O)CCC [Compound I-16]
